# Laboratory results reported in patent US7014844B2, “Lightening compositions and methods of use” (Avon Products, Inc., priority 2001, dated 2006).
# Tests used:
# DHICA polymerase = DHICA polymerase assay; type: biochemical; settings: 0.05 wt %; wheat germ agglutinin eluate; 4 hours; 400 nm
# Protocol: A DHICA polymerase assay was performed according to the method disclosed in Chakraborty et al., 1996, Polymerization of 5, 6-dihydroxyindole-2-Carboxylic acid to melanin by the pmell7/silver locus protein, Eur. J. Biochem. 236: 180–188. Specifically, the cell extract (0.5 ml, 150–200 μg protein) was passed through a wheat germ agglutinin column (1 ml bed volume) equilibrated with lysis buffer. The bound material was eluted with 0.5 ml 1M N-acetyl glucosamine, which contains crude DHICA polymerization factor and other melanogenic proteins. A reaction mixture of 0.5 ml containing either the enzyme preparation to be measured (20 μg protein from wheat germ agglutinin eluates) or the appropriate buffer blank, DHICA (0.5 mM), and 100 mM sodium phosphate buffer, pH 7.0. Phenylthiourea was also included to inhibit endogenous tyrosinase activity in the preparation.
# Spectrophotomeric reading of the absorbance of the reaction mixture was taken at T=0 and T=4 hours time points at 400 nm. […] An increase in absorbance over that seen in blank tubes was defined as specific DHICA polymerization factor activity.
# DOPAchrome tautomerase = biological target: T1, DOPAchrome tautomerase (Mus musculus, UniProt P29812); assay: DOPAchrome tautomerase (DCT) assay; type: biochemical; settings: 0.05 wt %; cell extract; phenylthiourea 1 mM; 475 nm
# T1 construct: DCT was assayed spectrophotometrically by adding up to 0.1 ml cell extract; endogenous in cells
# T1 sequence (P29812 24-517): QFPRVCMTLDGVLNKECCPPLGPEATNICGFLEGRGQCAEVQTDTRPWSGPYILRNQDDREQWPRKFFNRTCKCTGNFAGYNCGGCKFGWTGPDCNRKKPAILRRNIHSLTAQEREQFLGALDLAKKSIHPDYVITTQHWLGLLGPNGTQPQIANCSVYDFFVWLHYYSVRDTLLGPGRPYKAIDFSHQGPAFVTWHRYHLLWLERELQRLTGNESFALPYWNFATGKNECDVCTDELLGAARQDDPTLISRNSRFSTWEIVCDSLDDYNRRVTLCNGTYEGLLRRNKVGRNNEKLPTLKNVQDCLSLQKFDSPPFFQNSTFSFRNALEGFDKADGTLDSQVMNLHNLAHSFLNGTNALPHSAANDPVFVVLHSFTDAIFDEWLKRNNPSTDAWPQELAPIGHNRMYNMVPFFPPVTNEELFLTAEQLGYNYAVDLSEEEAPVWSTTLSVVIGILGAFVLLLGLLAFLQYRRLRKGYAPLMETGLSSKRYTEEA
# Protocol: DOPAchrome tautomerase (DCT) activity was assayed according to the method disclosed in Chakraborty et al., 1998, Effect of arbutin on melanogenic proteins in human melanocytes, Pigment Cell Res. 11: 206–212. Specifically, ice-cold DOPA (0.5 mg per ml of 0.1 M sodium phosphate buffer, pH 6.8) was mixed with Ag2O (30 mg Ag2O: 1 mg DOPA) for about 1 minute and filtered through a 0.22 μm Millipore filter. DCT was assayed spectrophotometrically by adding up to 0.1 ml cell extract to 0.5 ml of a solution of freshly prepared DOPAchrome (˜0.5 mg/ml). Reactions were carried out at room temperature in plastic cuvettes, and the disappearance of absorption at 475 nm was followed. Phenylthiourea (1 mM) was added to the reaction mixture, because the presence of tyrosinase in the cell extract can interfere with the assay. The percentage conversion of DOPAchrome was calculated per mg of protein extract and normalized against the control.
# tyrosinase = biological target: T2, tyrosinase (Mus musculus, UniProt P11344); assay: Tyrosinase assay; type: biochemical; settings: 0.05 wt %; mouse melanoma cell extract; DOPA substrate; 475 nm
# T2 construct: Tyrosinase was assayed spectrophotometrically by adding up to 0.1 ml cell extract; endogenous in cells
# T2 sequence (P11344 19-533): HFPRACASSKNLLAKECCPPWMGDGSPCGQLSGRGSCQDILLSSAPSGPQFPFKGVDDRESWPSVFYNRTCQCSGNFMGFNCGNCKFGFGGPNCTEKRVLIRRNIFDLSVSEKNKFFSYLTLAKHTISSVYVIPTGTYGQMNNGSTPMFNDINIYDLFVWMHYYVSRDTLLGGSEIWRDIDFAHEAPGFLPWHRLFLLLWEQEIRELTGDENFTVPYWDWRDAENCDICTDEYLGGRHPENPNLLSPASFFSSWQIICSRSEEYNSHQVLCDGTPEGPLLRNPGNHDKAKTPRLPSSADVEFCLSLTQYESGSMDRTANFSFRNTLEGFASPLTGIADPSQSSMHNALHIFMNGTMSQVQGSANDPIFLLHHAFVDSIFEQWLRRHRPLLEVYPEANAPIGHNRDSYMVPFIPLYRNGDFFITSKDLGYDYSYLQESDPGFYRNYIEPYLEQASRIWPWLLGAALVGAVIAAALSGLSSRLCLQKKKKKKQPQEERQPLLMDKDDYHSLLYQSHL
# Protocol: A tyrosinase assay was performed according to the method outlined in Chakraborty et al., 1989, Melanogenic regulatory factors in coated vesicles from melanoma cells, J. Invest. Dermatol. 93: 616–620. Specifically, mouse melanoma cells were dissolved with the addition of 0.1 M sodium phosphate buffer, pH 6.8, containing Triton X-100 (1% vol/vol), at a ratio of 1-5×10^6 cells/ml. After 10 minutes on ice, the extracts were centrifuged at 4° C. (10,000 g, for 10 minutes) and the supernatant fractions were assayed for tyrosinase. Tyrosinase was assayed spectrophotometrically by adding up to 0.1 ml cell extract to 0.2 ml of a solution of freshly prepared DOPA (˜0.5 mg/ml), in a total volume of 0.5 ml of 0.1 M sodium phosphate buffer, pH 6.8. Reactions were carried out at 37° C. in plastic cuvettes, and the appearance of absorption at 475 nm was followed.
# [1] = system: Reconstituted Human Epidermis (keratinocytes and Type IV melanocytes); assay: Reconstructed Pigmented Epidermal Tissue Assay; type: cell-based; settings: 0.1 wt %; treated 14 days; absorbance at 490 nm
# Protocol: A composition containing 0.1 wt % N, N, S (tris) carboxylmethyl cysteamine was tested in a Reconstructed Pigmented Epidermal Tissue Assay. Reconstituted Human Epidermis (tissue) consisting of keratinocytes and Type IV (Fitzpatrick scale) melanocytes (Skin Ethic, France) were grown in maintenance medium obtained from the tissue supplier. This model consists of melanocytes and keratinocytes and the pigmentation of the skin-equivalent is due to melanin. The tissue remained viable through the course of the experimental treatment and actively synthesized and transferred melanin. The skin equivalents were treated for 14 days with the active materials of the present invention and a measure of melanin was obtained by measuring absorbance of the tissue at 490 nm. All studies were conducted in 6-well tissue culture dishes (Falcon), at 37° C. and 5% CO2. All test articles were dissolved in medium. Tissues were fed 1 ml of medium with the active material or medium alone was used as the control. […] After 14 days the tissues were transferred to a 24-well tissue culture dish (Falcon), and pigmentation was assessed using a Packard microplate reader at 490 nm. […] A control baseline reading had been taken on day 2 after the models had equilibrated and used as a baseline tissue pigmentation value. The baseline reading was subtracted from the final readings to eliminate inherent absorbance by the tissue. […]
compound,measurement,setting,value
"O=C(O)CSCCN(CC(=O)O)CC(=O)O [N, N, S (tris) carboxylmethyl cysteamine]",average decrease in DHICA Polymerase conversion compared to the control,DHICA polymerase,58%
same,average decrease in DOPAchrome conversion as compared to the control,DOPAchrome tautomerase,65%
same,average decrease in tyrosinase conversion as compared to the control,tyrosinase,36%
same,reduction of reconstructed epidermal tissue pigmentation in comparison to control tissue,[1],about 40%
